US20060148796A1, “6-Substituted imidazopyrazines” (priority 2003, published 2006)

Assays:
[1] = test system: pentagastrin-stimulated acid secretion of the perfused rat stomach; assay: Secretion-inhibiting action on the perfused rat stomach (pentagastrin-stimulated acid secretion, intraduodenal administration in vivo); conditions: dose 1 μmol/kg i.d., perfused stomach of anesthetized CD rat, female
Excerpt: Testing of the Secretion-Inhibiting Action on the Perfused Rat Stomach
In Table A which follows, the influence of the compounds according to the invention on the pentagastrin-stimulated add secretion of the perfused rat stomach after intraduodenal administration in vivo is shown.
The abdomen of anesthetized rats (CD rat, female, 200-250 g; 1.5 g/kg Im. urethane) was opened after tracheotomy by a median upper abdominal incision and a PVC catheter was fixed transorally in the esophagus and another via the pylorus such that the ends of the tubes just projected into the gastric lumen. The catheter leading from the pylorus led outward into the right abdominal wall through a side opening.
After thorough rinsing (about 50-100 ml), warm (37° C.) physiological NaCl solution was continuously passed through the stomach (0.5 ml/min, pH 6.8-6.9; Braun-Unita I). The pH (pH meter 632, glass electrode EA 147; φ=5 mm, Metrohm) and, by titration with a freshly prepared 0.01N NaOH solution to pH 7 (Dosimat 665 Metrohm), the secreted HCl were determined in the effluent in each case collected at an interval of 15 minutes.
The gastric secretion was stimulated by continuous infusion of […] (=1.65 ml/h) of i.v. pentagastrin (left femoral vein) about 30 min after the end of the operation (.e. after determination of 2 preliminary fractions). […]

melting point [°C] | Structure (SMILES) | Inhibition of acid secretion (%) [1] [%]
 | CCc1cccc(C)c1CNc1nc(C(=O)N(C)C)cn2c(C)c(C)nc12 [Example 5, 6-(Dimethylaminocarbonyl)-8-(2-ethyl-6-methyl-benzylamino)-2,3-dimethyl-imidazo[1,2a]-pyrazine] | 49
163 | CCc1cccc(C)c1CNc1nc(Br)cn2c(C)c(C)nc12.O=C(O)C(=O)O [Example 3, 6-Bromo-8(2-ethyl-6-methyl-benzylamino)-2,3-dimethyl-imidazo[1,2-a]pyrazine oxalate] | 
166 | CCc1cccc(C)c1CNc1nc(CO)cn2c(C)c(C)nc12 [Example 12, 8-(2-Ethyl-6-methyl-benzylamino)-6-(hydroxymethyl)-2,3-dimethyl-imidazo[1,2-a]pyrazine] | 
197 | CCc1cccc(C)c1CNc1nc(C(=O)N2CCCC2)cn2c(C)c(C)nc12 [Example 7, 8-(2-Ethyl-6-methyl-benzylamino)-6-(pyrrolidinocarbonyl)-2,3-dimethyl-imidazo[1,2-a]pyrazine] | 
144 | CCOC(=O)c1cn2c(C)c(C)nc2c(NCc2c(C)cccc2CC)n1 [Example 4, Ethyl 8-(2-ethyl-6-methyl-benzylamino)-2,3-dimethyl-imidazo[1,2-a]pyrazine-6-carboxylate] | 
177 | CCc1cccc(C)c1CNc1nc(COC)cn2c(C)c(C)nc12.Cl [Example 13, 8-(2-Ethyl-6-methyl-benzylamino)-6-(methoxymethyl)-2,3-dimethyl-imidazo[1,2-a]pyrazine hydrochloride] | 46
230 | CCc1cccc(C)c1CNc1nc(C(=O)O)cn2c(C)c(C)nc12 [Example 6, 8-(2-Ethyl-6-methyl-benzylamino)-2,3-dimethyl-imidazo[1,2-a]pyrazine-6-carboxylic acid] | 
